Results as given in patent US20240254119A1 (THIRD HARMONIC BIO, INC., priority 2022, published 2024).

Assays:
[1] = system: KIT phosphorylation in M-07e cells; assay: Cell-based KIT phosphorylation in M-07e cells by pKIT ELISA; parameters: species or system human; settings: SCF stimulation
Outline: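 Serum-starved M-07e cells (1 × 10^6/mL, overnight) were treated with compounds (8-point 3-fold series from 1 uM) for 2 h at 37 °C, then stimulated with 100 ng/mL SCF for 5 min. Lysate phospho-KIT was captured on anti-phospho-CD117 plates, detected with anti-pY-HRP, and read at 450 nm against a pc-KIT standard curve.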

Caco-2 cells = assay: Caco-2 permeability assay; assay type: in vitro ADME; settings: for Caco-2: Papp A-B: Caco-2, apical to basolateral
Description: Exemplary compounds were tested for cell permeability in Caco-2, MDCKII-MDR1 and MDCKII-BCRP cell lines with efflux transporter engagement inferred from the efflux ratios determined. Procedures and results are described below. […] This feature of certain compounds is in part due to efflux transporter engagement. See, for instance, exemplary such compounds included in data tables below.
The transport buffer in the study was HBSS with 10.0 mM HEPES at pH 7.40±0.05. Test compound was tested at 2.00 μM bi-directionally in duplicate. Digoxin was tested at 10.0 μM bi-directionally in duplicate, while nadolol and metoprolol were tested at 2.00 μM in A to B direction in duplicate. Final DMSO concentration was adjusted to less than 1%. The plate was incubated for 2 hours in CO2 incubator at 37±1° C., with 5% CO2 at saturated humidity without shaking. And all samples after mixed with acetonitrile containing internal standard were centrifuged at 3200×g for 10 min. For nadolol and metoprolol, 200 μL supernatant solution was diluted with 600 μL ultra-pure water for LC-MS/MS analysis. For digoxin and test compounds, 200 μL supernatant solution was diluted with 200 μL ultra-pure water for LC-MS/MS analysis. Concentrations of test and control compounds in starting solution, donor solution, and receiver solution were quantified by LC-MS/MS methodologies, using peak area ratio of analyte/internal standard.
After transport assay, lucifer yellow rejection assay was applied to determine the Caco-2 cell monolayer integrity.
[…] And permeation of lucifer yellow through the monolayer was measured to evaluate the cellular integrity.
The apparent permeability coefficient Papp (cm/s) was calculated using the equation: Papp=(dCr/dt)×Vr/(A×C0), where dCr/dt is the cumulative concentration of compound in the receiver chamber as a function of time (μM/s); Vr is the solution volume in the receiver chamber (0.075 mL on the apical side, 0.25 mL on the basolateral side); A is the surface area for the transport, i.e. 0.0804 cm^2 for the area of the monolayer; C0 is the initial concentration in the donor chamber (μM).
The efflux ratio was calculated using the equation: Efflux Ratio=Papp (BA)/Papp(AB).
Percent recovery was calculated using the equation: % Solution Recovery=100×[(Vr×Cr)+(Vd×Cd)]/(Vd×C0), where Vd is the volume in the donor chambers (0.075 mL on the apical side, 0.25 mL on the basolateral side); Cd and Cr are the final concentrations of transport compound in donor and receiver chambers, respectively.

O=C(Nc1cc(-c2noc([C@H]3C[C@@H]3F)n2)ccc1Cl)c1cnc2ccccn12 [Compound I-341]
IC50 [1]: 50 to 500 nM
Caco-2: Efflux Ratio (Caco-2 cells): 0.56
Caco-2: Papp A-B (Caco-2 cells): 16.2 10^−6 cm/s

Cc1nc(-c2ccc(Cl)c(NC(=O)c3cnc4ccccn34)c2)no1 [Compound I-172]
IC50 [1]: 500 to 5000 nM
Caco-2: Efflux Ratio (Caco-2 cells): 0.49
Caco-2: Papp A-B (Caco-2 cells): 12.9 10^−6 cm/s

CCCS(=O)(=O)N1CC(c2nc(-c3ccc(Cl)c(NC(=O)c4cnc5ccccn45)c3)no2)C1 [Compound I-220]
IC50 [1]: 50 to 500 nM
Caco-2: Efflux Ratio (Caco-2 cells): 0.25
Caco-2: Papp A-B (Caco-2 cells): 16.5 10^−6 cm/s

Cc1ccc(-c2noc([C@H]3C[C@@H]3F)n2)cc1NC(=O)c1cnc2cc(OC(F)(F)F)ccn12 [Compound I-87]
IC50 [1]: ≤ 50 nM
Caco-2: Efflux Ratio (Caco-2 cells): 0.66
Caco-2: Papp A-B (Caco-2 cells): 7.81 10^−6 cm/s

COC(=O)N1CC(c2nc(-c3ccc(C)c(NC(=O)c4cnn5ccc(Br)cc45)c3)no2)C1 [Compound I-280]
IC50 [1]: ≤ 50 nM
Caco-2: Efflux Ratio (Caco-2 cells): 0.86
Caco-2: Papp A-B (Caco-2 cells): 14 10^−6 cm/s

Cc1ccc(-c2noc([C@H](C)O)n2)cc1NC(=O)c1cnc2ccccn12 [Compound I-271]
IC50 [1]: ≤ 50 nM
Caco-2: Efflux Ratio (Caco-2 cells): 2.93
Caco-2: Papp A-B (Caco-2 cells): 6.26 10^−6 cm/s

Cc1ccc(-c2noc([C@H]3C[C@@H]3F)n2)cc1NC(=O)c1cnc2ccc(F)cn12 [Compound I-288]
IC50 [1]: 50 to 500 nM
Caco-2: Efflux Ratio (Caco-2 cells): 0.56
Caco-2: Papp A-B (Caco-2 cells): 17.4 10^−6 cm/s

Cc1ccc(-c2noc(C3CC(C)(F)C3)n2)cc1NC(=O)c1cnc2ccccn12 (stereo not drawn) [Compound I-387]
IC50 [1]: ≤ 50 nM
Caco-2: Efflux Ratio (Caco-2 cells): 0.77
Caco-2: Papp A-B (Caco-2 cells): 14.5 10^−6 cm/s

Cc1ccc(-c2noc(C3CCC3F)n2)cc1NC(=O)c1cnc2ccccn12 (racemic) [Compound I-376]
IC50 [1]: ≤ 50 nM
Caco-2: Efflux Ratio (Caco-2 cells): 0.85
Caco-2: Papp A-B (Caco-2 cells): 19.5 10^−6 cm/s

Cc1ccc(-c2noc(C3COC3)n2)cc1NC(=O)c1cnc2ccccn12 [Compound I-138]
IC50 [1]: ≤ 50 nM
Caco-2: Efflux Ratio (Caco-2 cells): 1.42
Caco-2: Papp A-B (Caco-2 cells): 16.6 10^−6 cm/s

Cc1ccc(-c2noc(C3CCC(F)C3)n2)cc1NC(=O)c1cnc2ccccn12 (racemic) [Compound I-319]
IC50 [1]: ≤ 50 nM
Caco-2: Efflux Ratio (Caco-2 cells): 0.83
Caco-2: Papp A-B (Caco-2 cells): 16 10^−6 cm/s

COC(=O)N1CC(c2nc(-c3ccc(Cl)c(NC(=O)c4cnc5ccccn45)c3)no2)C1 [Compound I-339]
IC50 [1]: ≤ 50 nM
Caco-2: Efflux Ratio (Caco-2 cells): 0.56
Caco-2: Papp A-B (Caco-2 cells): 22.2 10^−6 cm/s
